Measurements published in ChEMBL document CHEMBL1158470, “9-(Arenethenyl)purines as dual Src/Abl kinase inhibitors targeting the inactive conformation: design, synthesis, and biological evaluation” (J Med Chem, 2009).
Active and inactive are the calls of the source. No cut-off for these calls is given here.

How the values were obtained:
[1] = system: K562; assay: Antiproliferative activity against human K562 cells after 3 days by MTS assay
[2] = Antiproliferative activity against mouse BA/F3 cells after 3 days by MTS assay
[3] = target: Tyrosine-protein kinase ABL1 (Homo sapiens, UniProt P00519)
Description: Inhibition of wild type human Abl kinase by TR-FRET assay

[4] = Antiproliferative activity against mouse BA/F3 cells expressing Bcr-Abl T315I mutant after 3 days by MTS assay; settings: BaF3, 72 h
[5] = Clearance in CD rat at 5 mg/kg, iv; assay type: ADME, organism-based; set-up: dose 5 mg/kg, route intravenous; settings: in vivo
[6] = Volume of distribution in CD rat at 5 mg/kg, iv; assay type: ADME, organism-based; set-up: dose 5 mg/kg, route intravenous; settings: in vivo
[7] = Half life in CD rat at 5 mg/kg, iv; assay type: ADME, organism-based; set-up: dose 5 mg/kg, route intravenous; settings: in vivo
[8] = AUC (0 to 24 hrs) in CD rat at 15 mg/kg, po; assay type: ADME, organism-based; set-up: time < 24 hr, dose 15 mg/kg, route oral; settings: plasma
[9] = Cmax in CD rat at 15 mg/kg, po; assay type: ADME, organism-based; set-up: dose 15 mg/kg, route oral; settings: in vivo
[10] = Tmax in CD rat at 15 mg/kg, po; assay type: ADME, organism-based; set-up: dose 15 mg/kg, route oral; settings: in vivo
[11] = Oral bioavailability in CD rat at 15 mg/kg; assay type: ADME, organism-based; settings: in vivo
[12] = Antiproliferative activity against mouse BA/F3 cells expressing wild type Bcr-Abl after 3 days by MTS assay
[13] = target: Proto-oncogene tyrosine-protein kinase Src (Homo sapiens, UniProt P12931)
Description: Inhibition of human Src kinase by TR-FRET assay

[14] = system: BaF3; assay: Antitumor activity against mouse BA/F3 cells expressing wild type Bcr-Abl xenografted in CB17 SCID mouse assessed as median survival time at 75 mg/kg, po administered on day 3 once daily for 19 days relative to control; assay type: functional, organism-based; set-up: dose 75 mg/kg
[15] = system: BaF3; assay: Antitumor activity against mouse BA/F3 cells expressing wild type Bcr-Abl xenografted in CB17 SCID mouse assessed as increase in mouse survival at 75 mg/kg, po administered on day 3 once daily for 19 days relative to control; assay type: functional, organism-based; set-up: dose 75 mg/kg
[16] = AUC (0 to 24 hrs) in mouse at 10 mg/kg, po; assay type: ADME, organism-based; set-up: time < 24 hr, dose 10 mg/kg, route oral; settings: plasma
[17] = Cmax in mouse at 10 mg/kg, po; assay type: ADME, organism-based; set-up: dose 10 mg/kg, route oral; settings: in vivo
[18] = Tmax in mouse at 10 mg/kg, po; assay type: ADME, organism-based; set-up: dose 10 mg/kg, route oral; settings: in vivo
[19] = Antiproliferative activity against mouse BA/F3 cells expressing Bcr-Abl L248R mutant after 3 days by MTS assay; settings: BaF3, 72 h
[20] = Antiproliferative activity against mouse BA/F3 cells expressing Bcr-Abl G250E mutant after 3 days by MTS assay; settings: BaF3, 72 h
[21] = Antiproliferative activity against mouse BA/F3 cells expressing Bcr-Abl Q252H mutant after 3 days by MTS assay; settings: BaF3, 72 h
[22] = Antiproliferative activity against mouse BA/F3 cells expressing Bcr-Abl Y253H mutant after 3 days by MTS assay; settings: BaF3, 72 h
[23] = Antiproliferative activity against mouse BA/F3 cells expressing Bcr-Abl E255K mutant after 3 days by MTS assay; settings: BaF3, 72 h
[24] = Oral bioavailability in mouse at 10 mg/kg; assay type: ADME, organism-based; settings: in vivo
[25] = Antitumor activity against mouse BA/F3 cells expressing wild type Bcr-Abl xenografted in CB17 SCID mouse assessed as median survival time at 10 mg/kg, po administered on day 3 once daily for 19 days; assay type: functional, BaF3
[26] = Antitumor activity against mouse BA/F3 cells expressing wild type Bcr-Abl xenografted in CB17 SCID mouse assessed as increase in mouse survival at 10 mg/kg, po administered on day 3 once daily for 19 days; assay type: functional; settings: BaF3
[27] = system: NIH3T3; assay: Antitumor activity against in po dosed mouse NIH/3T3 cells expressing Src Y527F mutant xenografted in CD1 nude mouse assessed as tumor shrinkage administered daily for 21 days; assay type: functional, organism-based
[28] = system: NIH3T3; assay: Antitumor activity against in mouse NIH/3T3 cells expressing Src Y527F mutant xenografted in CD1 nude mouse assessed as complete tumor regression at 100 mg/kg, po administered daily for 21 days; assay type: functional, organism-based; set-up: dose 100 mg/kg

Chain of Proto-oncogene tyrosine-protein kinase Src (P12931 2-536 limits assumed): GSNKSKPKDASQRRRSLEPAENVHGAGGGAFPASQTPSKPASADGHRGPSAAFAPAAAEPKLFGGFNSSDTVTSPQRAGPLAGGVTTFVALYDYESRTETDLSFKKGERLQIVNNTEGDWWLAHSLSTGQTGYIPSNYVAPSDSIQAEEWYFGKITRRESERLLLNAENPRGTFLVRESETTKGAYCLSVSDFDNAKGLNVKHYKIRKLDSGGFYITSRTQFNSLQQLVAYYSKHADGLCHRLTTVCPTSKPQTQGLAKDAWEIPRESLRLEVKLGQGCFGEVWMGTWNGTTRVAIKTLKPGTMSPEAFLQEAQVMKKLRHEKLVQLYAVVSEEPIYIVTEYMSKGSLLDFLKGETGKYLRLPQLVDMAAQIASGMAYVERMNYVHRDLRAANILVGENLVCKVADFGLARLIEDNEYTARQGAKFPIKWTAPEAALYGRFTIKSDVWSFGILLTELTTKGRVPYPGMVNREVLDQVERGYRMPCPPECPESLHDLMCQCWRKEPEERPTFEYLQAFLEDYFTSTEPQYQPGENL
Chain of Tyrosine-protein kinase ABL1 (P00519 whole entry): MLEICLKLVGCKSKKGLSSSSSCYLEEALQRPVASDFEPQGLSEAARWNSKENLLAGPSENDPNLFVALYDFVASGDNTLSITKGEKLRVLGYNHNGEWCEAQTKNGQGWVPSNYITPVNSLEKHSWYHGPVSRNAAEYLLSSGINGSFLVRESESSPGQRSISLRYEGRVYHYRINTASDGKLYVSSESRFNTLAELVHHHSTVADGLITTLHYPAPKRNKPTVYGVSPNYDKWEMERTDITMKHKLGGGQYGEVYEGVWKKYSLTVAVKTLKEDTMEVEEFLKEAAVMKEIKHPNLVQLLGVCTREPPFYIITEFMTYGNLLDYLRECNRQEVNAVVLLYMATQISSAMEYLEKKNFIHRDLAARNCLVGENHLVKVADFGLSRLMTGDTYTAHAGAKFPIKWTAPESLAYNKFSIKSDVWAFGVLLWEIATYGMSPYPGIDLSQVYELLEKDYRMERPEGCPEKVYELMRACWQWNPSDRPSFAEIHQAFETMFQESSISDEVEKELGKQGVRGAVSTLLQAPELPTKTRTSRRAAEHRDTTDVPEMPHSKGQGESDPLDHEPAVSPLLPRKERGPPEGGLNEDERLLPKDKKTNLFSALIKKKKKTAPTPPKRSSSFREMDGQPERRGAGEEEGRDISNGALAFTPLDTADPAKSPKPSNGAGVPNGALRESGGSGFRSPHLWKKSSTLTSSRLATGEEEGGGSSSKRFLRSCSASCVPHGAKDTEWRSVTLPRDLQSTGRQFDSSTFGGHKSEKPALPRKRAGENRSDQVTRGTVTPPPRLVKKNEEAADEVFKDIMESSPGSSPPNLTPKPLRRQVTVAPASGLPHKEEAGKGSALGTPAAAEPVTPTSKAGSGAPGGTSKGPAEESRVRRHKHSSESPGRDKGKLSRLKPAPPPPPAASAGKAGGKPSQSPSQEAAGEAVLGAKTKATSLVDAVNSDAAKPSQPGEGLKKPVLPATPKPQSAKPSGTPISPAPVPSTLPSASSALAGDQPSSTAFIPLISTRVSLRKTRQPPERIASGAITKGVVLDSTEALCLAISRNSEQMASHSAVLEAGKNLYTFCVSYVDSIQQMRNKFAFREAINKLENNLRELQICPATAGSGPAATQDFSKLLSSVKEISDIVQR

SMILES	IC50 ([1]; Homo sapiens, K562, 72 h) [nM]	clearance [5] [mL/min/kg]	Vd [6] [L/kg]	half-life [7] [h]	Cmax [9] [ng/mL]	Tmax [10] [h]	IC50 ([2]; Mus musculus, BaF3, 72 h) [nM]	also measured
Cc1ccc(C(=O)Nc2cc(C(F)(F)F)ccc2F)cc1/C=C/n1cnc2c(NC3CC3)ncnc21	68	–	–	–	–	–	7660	IC50 [3]: 236 nM
Cc1ccc(NC(=O)c2cccc(C(F)(F)F)c2)cc1/C=C/n1cnc2c(NCCCN(C)C)ncnc21	–	–	–	–	–	–	–	IC50 ([1]; k562): Not Active; IC50 ([12]; baf3): Not Active; IC50 ([2]; baf3): Not Active; IC50 [13]: 159 nM; IC50 [3]: 157 nM
Cc1cn(-c2cc(NC(=O)c3ccc(C)c(Nc4nccc(-c5cccnc5)n4)c3)cc(C(F)(F)F)c2)cn1	–	–	–	–	–	–	–	Activity [14]: Active; Activity [15]: Active
CNc1ncnc2c1ncn2/C=C/c1cc(NC(=O)c2cccc(C(F)(F)F)c2)ccc1C	67	6.33	1.6	2.95	–	–	> 10000	–
Cc1ccc(NC(=O)c2cccc(C(F)(F)F)c2)cc1/C=C/n1cnc2c(NC3CC3)ncnc21	95	3.17	1.08	4	2610	1	7860	AUC(0-t) at 24 h [8]: 32200 ng·h/mL; bioavailability [11]: 40%
Cc1ccc(C(=O)Nc2ncc(C(C)(C)C)s2)cc1/C=C/n1cnc2c(NC3CC3)ncnc21	292	–	–	–	–	–	7120	IC50 [13]: 310 nM; IC50 [3]: 267 nM
CNc1ncnc2c1ncn2CCc1cc(NC(=O)c2cccc(C(F)(F)F)c2)ccc1C	–	–	–	–	–	–	9680	IC50 ([1]; k562): Not Active; IC50 [13]: 300 nM
Cc1ccc(NC(=O)c2cccc(C(F)(F)F)c2)cc1/C=C/n1cnc2c(Nc3ccccn3)ncnc21	181	–	–	–	–	–	6260	IC50 [13]: 201 nM; IC50 [3]: 243 nM
Cc1ccc(C(=O)Nc2cccc(C(C)(C)C)c2)cc1/C=C/n1cnc2c(NC3CC3)ncnc21	22	29.8	5.31	2.1	100	1	2550	AUC(0-t) at 24 h [8]: 297 ng·h/mL; bioavailability [11]: 3.5%
Cc1ccc(NC(=O)c2cccc(C(F)(F)F)c2)cc1/C=C/n1cnc2c(Nc3ccncn3)ncnc21	62	–	–	–	–	–	2070	–
Cc1ccc(C(=O)Nc2cc(C(F)(F)F)ccn2)cc1/C=C/n1cnc2cncnc21	–	–	–	–	–	–	–	IC50 ([12]; Mus musculus, BaF3, 72 h): 5 nM
Cc1ccc(C(=O)Nc2cc(C(C)(C)C)nn2C)cc1/C=C/n1cnc2c(NC3CC3)ncnc21	35	–	–	–	–	–	9030	IC50 [3]: 146 nM
Cc1cn(-c2cc(NC(=O)c3ccc(C)c(/C=C/n4cnc5cncnc54)c3)cc(C(F)(F)F)c2)cn1	–	–	–	–	–	–	–	IC50 ([12]; Mus musculus, BaF3, 72 h): 7 nM
Cc1ccc(NC(=O)Nc2cccc(C(F)(F)F)c2)cc1/C=C/n1cnc2c(NC3CC3)ncnc21	> 1000	–	–	–	–	–	–	IC50 [13]: 517 nM
Cc1ccc(C(=O)Nc2cccc(C(C)C)c2)cc1/C=C/n1cnc2c(NC3CC3)ncnc21	63	–	–	–	–	–	8320	–
Cc1ccc(C(=O)Nc2ccc(Cl)c(C(F)(F)F)c2)cc1/C=C/n1cnc2c(NC3CC3)ncnc21	69	–	–	–	–	–	2410	–
Cc1ccc(C(=O)Nc2cc(C(F)(F)F)ccn2)cc1/C=C/n1cnc2c(NC3CC3)ncnc21	6.1	0.667	0.34	5.7	23500	2	4890	AUC(0-t) at 24 h [8]: 428000 ng·h/mL; AUC(0-t) at 24 h [16]: 21200 ng·h/mL; Cmax [17]: 3100 ng/mL; Tmax [18]: 2 h; bioavailability [11]: 116%; bioavailability [24]: 100%; MST [25]: 35 days; survival at 10 mg/kg [26]: 75%; Activity [27]: Dose-dependent effect; Activity [28]: Active; IC50 [4]: 2750 nM
Cc1ccc(C(=O)Nc2cccc(C(F)(F)F)c2)cc1/C=C/n1cnc2c(NC3CC3)ncnc21	17	–	–	–	–	–	4350	–

The remaining compounds from weak to strong by IC50 ([1]; Homo sapiens, K562, 72 h), led by results:

IC50 ([1]; Homo sapiens, K562, 72 h) [nM]	clearance [5] [mL/min/kg]	Vd [6] [L/kg]	half-life [7] [h]	Cmax [9] [ng/mL]	Tmax [10] [h]	SMILES	IC50 ([2]; Mus musculus, BaF3, 72 h) [nM]	also measured
17	–	–	–	–	–	Cc1ccc(C(=O)Nc2cc(N3CCOCC3)cc(C(F)(F)F)c2)cc1/C=C/n1cnc2c(NC3CC3)ncnc21	2520	–
15	15	4.87	3.7	1040	1	Cc1ccc(C(=O)Nc2cc(C(C)(C)C)on2)cc1/C=C/n1cnc2c(NC3CC3)ncnc21	> 10000	AUC(0-t) at 24 h [8]: 7540 ng·h/mL; bioavailability [11]: 45%
14	–	–	–	–	–	Cc1ccc(C(=O)Nc2cc(N3CCN(C)CC3)cc(C(F)(F)F)c2)cc1/C=C/n1cnc2c(NC3CC3)ncnc21	543	–
5.4	–	–	–	–	–	Cc1ccc(C(=O)Nc2cc(-n3ccnc3)cc(C(F)(F)F)c2)cc1/C=C/n1cnc2c(NC3CC3)ncnc21	7120	IC50 [4]: 298 nM
4.3	1	0.78	8.3	1750	2	Cc1cn(-c2cc(NC(=O)c3ccc(C)c(/C=C/n4cnc5c(NC6CC6)ncnc54)c3)cc(C(F)(F)F)c2)cn1	6460	AUC(0-t) at 24 h [8]: 17200 ng·h/mL; AUC(0-t) at 24 h [16]: 6930 ng·h/mL; Cmax [17]: 1020 ng/mL; Tmax [18]: 1 h; bioavailability [11]: 7%; IC50 [4]: 422 nM; IC50 [19]: 64 nM; IC50 [20]: 63 nM; IC50 [21]: 42 nM; IC50 [22]: 44 nM; IC50 [23]: 24 nM
3.7	16	9.01	6.7	483	6	Cc1ccc(NC(=O)c2cccc(C(F)(F)F)c2)cc1/C=C/n1cnc2c(Nc3ccncc3)ncnc21	635	–
2.7	8.17	1.7	2.4	387	2	Cc1ccc(NC(=O)c2cccc(C(F)(F)F)c2)cc1/C=C/n1cnc2c(Nc3cccnc3)ncnc21	> 10000	IC50 ([12]; baf3): Not Active; AUC(0-t) at 24 h [8]: 3310 ng·h/mL; bioavailability [11]: 11%
0.95	13.2	3.54	3.1	63	1	Cc1ccc(NC(=O)c2cccc(C(F)(F)F)c2)cc1/C=C/n1cnc2c(Nc3ccc(P(C)(C)=O)cc3)ncnc21	7600	AUC(0-t) at 24 h [8]: 146 ng·h/mL; bioavailability [11]: 0.8%
